Data published in US6242224A, “Maltohexaose and maltoheptaose-forming amylase, and its preparation and uses” (Kabushiki Kaisha Mayashibara Seibutsu Kagaku Kenkyujo, priority 1994, dated 2001).

Tested on: AMYLASE
Experiment: Inhibition or promotion of AMYLASE activity by ions and EDTA
Type: biochemical, Alcaligenes latus D2271
Conditions: for inhibition of enzyme activity: one mM metal ion
Experimental: The activity of the present AMYLASE is assayed as follows: 0.2 ml of an enzyme solution is added to 5 ml of 0.3 w/v % soluble starch in 20 mM phosphate buffer (pH 5.5) containing 1 mM CaCl2), and the mixture solution is incubated at 40° C. for 10 min, followed by sampling 0.5 ml of the resultant solution, and adding the solution to 15 ml of 0.02N sulfate solution to suspend the enzymatic reaction. The resultant is mixed with 0.2 ml of 0.1N iodine solution, stirred, allowed to stand at 25° C. for 15 min, and its absorbance at a wave length of 660 nm determined. One unit activity of the present AMYLASE is defined as the amount of enzyme which diminishes the iodine coloration of 15 mg soluble starch when reacted at 40° C. for 10 min.
Effects of temperature and pH on the enzyme activity were studied in the presence of calcium chloride in accordance with the assay as used for determining the enzyme activity. […] The thermal stability of the enzyme was determined by incubating it in 20 mM acetate buffer containing 5 mM calcium chloride (pH 6.0) at different temperatures for 60 min, cooling the buffers, and assaying the remaining enzyme activity in each buffer. The pH stability of the enzyme was determined by incubating it in 20 mM acetate buffer having different pHs at 40° C. for one hour, adjusting the buffer to pH 6.0, and assaying the remaining enzyme activity in each buffer.

| Compound | inhibition of enzyme activity | promotion of activity and stabilization of AMYLASE (calcium ion) |
| --- | --- | --- |
| [Hg+2] [mercury ion] | inhibited |  |
| [Pb+2] [lead ion] | inhibited |  |
| [Zn+2] [zinc ion] | inhibited |  |
| [Ca+2] [calcium ion] |  | promoted its activity and stabilized |
| [Cu+2] [copper ion] | inhibited |  |
